{"source": "patent US20230138393A1", "about": "“LINKING AMINO ACID SEQUENCES, MANUFACTURING METHOD THEREOF, AND USE THEREOF” (priority 2020, published 2023)", "key": {"DLD-1 cells [1]": {"test_system": "DLD-1 cells", "details": "literature; cited from earlier work"}, "DLD-1 cells [2]": {"test_system": "DLD-1 cells", "assay": "Cell penetration assay of FITC-labelled Axin analogues (confocal imaging)", "format": "cell-based", "details": "10 μM", "description": "Images were analyzed with NIH ImageJ software.\nCell Penetration Assay: DLD-1 cells were seeded on 35 mm optical dishes at 3e5 per well and were incubated overnight at 37° C./5% CO2. […] Cells were imaged in buffer mimicking the physiological conditions in the cytoplasm (20 mM HEPES, 110 mM KOAc, 5 mM NaOAc, 2 mM MgOAc, 1 mM EGTA, pH 7.3)."}}, "data": [{"smiles": "CC[C@H](C)[C@@H]1NC(=O)[C@@](C)(NC(=O)[C@H](CCC(N)=O)NC(=O)[C@@H]2CCCN2C(=O)[C@H](Cc2c[nH]c3ccccc23)NC(=O)[C@H](CCCNC(=N)N)NC(=O)COCCOCCNC(=S)Nc2ccc3c(c2)C(=O)OC32c3ccc(O)cc3Oc3cc(O)ccc32)CCCC=CCCC[C@@](C)(C(=O)N[C@@H](Cc2c[nH]cn2)C(=O)N[C@H](C(=O)N[C@@H](CCCNC(=N)N)C(=O)N[C@@H](CCCNC(=N)N)C(=O)N[C@H](C(=O)N[C@@H](Cc2c[nH]c3ccccc23)C(=O)N[C@@H](CCCNC(=N)N)C(N)=O)C(C)C)C(C)C)NC(=O)[C@H](CC(=O)O)NC(=O)[C@H](CC(C)C)NC1=O", "note": "[Peptide 51, reference compound]", "values": [{"measurement": "reported cell permeability to DLD-1 cells", "setting": "DLD-1 cells [1]", "value": "limited cell permeability"}, {"measurement": "cellular uptake by confocal fluorescence microscopy (in words)", "setting": "DLD-1 cells [2]", "value": "much weaker fluorescence"}]}]}
